“And” between values parts separate entries of the source, which are not always exact repeats. Equal entries are not always repeated. “Also recorded” adds a separate entry of the source.
Legend:
[1] = tested on: male gametes from mature stage V gametocytes; assay: Dual gamete formation assay: male gamete formation (exflagellation); format: cell-based, Plasmodium falciparum; conditions: for inhibition of male gamete formation: 1 µM, 48 h treatment of mature gametocytes; for Dual Gamete Formation Assay: Male at 1 µM, Mean: mean of 4 plates
Experimental: (§1) The compounds were tested in the P. falciparum Dual Gamete Formation Assay (PfDGFA)[84], fully described in the Supplementary Information. […]
(§2) Dual gamete formation assays. The compounds were tested in the P. falciparum Dual Gamete Formation Assay (PfDGFA) 13. Briefly, mature stage V gametocytes were exposed to compounds for 48 h at 37°C in 384 well plates in gametocyte culture medium (RPMI 1640 supplemented with 25 mM HEPES, 50 μg/mL hypoxanthine, 4.8 g/L NaHCO3, 2 mM L-glutamine, 5% pooled type AB serum, 0.5% Albumax II (Gibco)) under a 1% O2, 3% CO2, 96% N2 environment. Gametogenesis was then triggered by the addition of 10 μL ookinete medium (gametocyte culture medium supplemented with 100 μM xanthurenic acid and 0.27 µg/mL Cy3-labelled anti-Pfs25 antibody) to each well at room temperature. Plates were then cooled on a metal block at 4°C for four min to ensure even cooling and then stabilised for a further 4 min at 28°C. At 20 min post-induction, male gametogenesis was recorded in each well by automated brightfield microscopy using a x4 objective lens and 1.5x magnifier (x6 effective magnification). Afterward, plates were incubated in the dark at room temperature for 24 h and then female gametogenesis recorded in each well by automated fluorescence microscopy (anti-Pfs25-positive cells). All experiments were performed in quadruplicate with DMSO and cabamiquine (DDD107498)17 as negative and positive controls respectively. All data was evaluated in comparison to the positive and negative controls to calculate percentage inhibition of male and female gametocytes, and dose response analysis and IC50 calculation performed using GraphPad Prism. […]

[2] = tested on: female gametes from mature stage V gametocytes; assay: Dual gamete formation assay: female gamete formation (Pfs25 expression); format: cell-based, Plasmodium falciparum; conditions: for inhibition of female gamete formation: 1 µM, 48 h treatment of mature gametocytes; for Dual Gamete Formation Assay: Female at 1 µM, Mean: mean of 4 plates
Experimental: as §1, §2

stage IV-V gametocytes = assay: Standard membrane feeding assay: stage V gametocytes on day 17; format: cell-based, Plasmodium falciparum; conditions: days 14-17; for Percentage of Stage V gametocytes: Fig 7C, untreated 4.75
Experimental: (§3) These assays were performed at the Walter and Eliza Hall Institute and at the London School of Hygiene and Tropical Medicine using slightly different approaches which are described in the Supplementary Information. […]
Gametocyte culturing and standard membrane feeding assay (London School of Hygiene and Tropical Medicine). P. falciparum NF54 gametocytes were prepared for blood-feeding to mosquitoes according to the method described by 13, with some slight modifications. Briefly, gametocyte cultures seeded at 2% overall parasitaemia and 4% haematocrit were maintained at 37 °C for 17 days with daily media changes.
Gametocyte functional viability was assessed by ex-flagellation assay at day 14 post induction, observed by light microscopy. An. stephensi (SD500 strain) were reared as […]
Gametocyte aliquots from a single NF54 culture, produced as above, were incubated […]
or culture medium only (no -drug control) from day 14 until day 17 when SMFA was carried out. Fresh drug -containing media was provided each day during this exposure.
Pots of 70 -80 two- to five-day old female An. stephensi mosquitoes were allowed to feed on 500 µL of the respective culture+drug mixture, presented to each pot in a pre - heated 3D -printed water channel membrane feeder 15, until fully fed. Mosquitoes were placed in an incubator at standard conditions and midguts dissected in 0.25% mercurochrome stain for oocyst counts by light microscopy 7-8 days post-feed. […]

[3] = tested on: P. falciparum oocysts in mosquito midguts; assay: Standard membrane feeding assay: oocysts in mosquito midguts (Walter and Eliza Hall Institute); format: in vivo, Plasmodium falciparum; conditions: for Oocyst counts from individual mosquitoes: 30 mosquitoes dissected
Experimental: as §3
were aspirated into a cup and anesthetized by cooling to 4 °C until immobilized and kept on ice for the dissection. The mosquitoes were then dissected as previously described 12 and collected midguts were maintained in 1X PBS (Gibco) until they were stained with mercurochrome for 20 mins. […]

P. berghei = conditions: at concentrations that are effective against P. falciparum; ref Nguyen et al. 2024; cited from earlier work

Row | Compound | inhibition of male gamete formation [1] | Dual Gamete Formation Assay: Male at 1 µM, Mean [1] | inhibition of female gamete formation [2] | Dual Gamete Formation Assay: Female at 1 µM, Mean [2] | Percentage of Stage V gametocytes (stage IV-V gametocytes; W-991 1 nM) [%] | Percentage of Stage V gametocytes (stage IV-V gametocytes; W-991 50 nM) [%] | Percentage of Stage V gametocytes (stage IV-V gametocytes; W-991 100 nM) [%] | effect on gametocyte development (stage IV-V gametocytes; W-991 1, 50, 100 nM) | reduction of the number of oocysts compared to untreated control ([3]; 100 nM W-991, oocysts counted 7 days after feeding) [fold] | Oocyst counts from individual mosquitoes ([3]; W-991 1 nM) | Oocyst counts from individual mosquitoes ([3]; W-991 50 nM) | Oocyst counts from individual mosquitoes ([3]; W-991 100 nM) | oocysts per mosquito ([3]; W-991 1, 50, 100 nM, day 7 after feeding) | effect on P. berghei parasitemia (P. berghei)
1 | Cc1cc(Cl)c(S(=O)(=O)N2CCCC2)cc1OCC(=O)NC1CCCCC1 [M-833] | no inhibition | 0.872 | no inhibition | -1.423 | – | – | – | – | – | – | – | – | – | –
2 | CC(C)(Nc1ccc(Cl)c(S(=O)(=O)N2CCOCC2)c1)C(=O)Nc1ccc(F)c(Cl)c1 [W-991] | no inhibition | -1.328 | no inhibition | -2.932 | 5 | 5.3 | 5 | no defect in gametocyte development; also recorded: no impact | > 20 | 38 and 56 and 49 and 30 and 0 and 4 and 7 and 9 and 6 and 8 and 12 and 35 and 22 and 20 and 13 and 50 and 15 and 10 and 31 and 18 and 11 and 24 and 1 | 9 and 3 and 23 and 27 and 20 and 4 and 12 and 0 and 7 and 10 and 2 and 31 and 22 and 1 and 17 | 6 and 0 and 2 and 16 and 24 and 8 and 11 and 5 and 1 and 7 and 12 | dose-dependent decrease in oocysts per mosquito | does not reduce P. berghei parasitemia
